Columns and labels:
[1] = system: intracranially implanted A375 tumours (BRAF V600E); test: Intracranial A375 luc melanoma model (brain metastatic setting); format: in vivo, mice
From the text: (§1) All animal experiments were approved by and performed according to the guidelines of the Institutional Animal Care Committee of the Vall d'Hebron Research Institute in agreement with the European Union and national directives. Female and male NOD scid gamma (NSG) mice of 4 to 5-week-old were purchased from Charles River.
For intracranial models, 5×10^5 A375 luc cells were stereotactically inoculated into the corpus striatum of the right brain hemisphere (1 mm anterior and 1.8 mm lateral to the […]; 2.5 mm intraparenchymal) of mice. Brain implanted tumors were monitored through regular Bioluminescence (BLI) signal detection and a relapse was determined upon observation of a progressive gradual increase of BLI signal.
The A375 cell line presenting BRAF V600E was used as melanoma model. The cell line was stably transduced with a luciferase expressing vector to facilitate tumor size monitoring. […] Brain implanted tumors were monitored through regular Bioluminescence (BLI) signal detection and a relapse was determined upon observation of a progressive gradual increase of BLI signal. […]
The A375 cell line presenting BRAF V600E was used as melanoma model. […] Brain implanted tumors were monitored through regular Bioluminescence (BLI) signal detection and a relapse was determined upon observation of a progressive gradual increase of BLI signal (total flux (p/s) was used to estimate tumour size). […]

[2] = system: primary tumors from brain metastatic lesions progressing on BRAFi monotherapy or combination therapy with a MEKi; test: In vivo testing in primary tumors from brain metastatic lesions progressing on BRAFi or BRAFi/MEKi
[3] = system: subcutaneously implanted A375 tumours (BRAF V600E); test: Subcutaneous A375 luc melanoma model (peripheral disease); format: in vivo, mice
From the text: as §1
For subcutaneous model, 5×10^6 A375 melanoma cells were subcutaneously injected into one flank of mice. Tumour growth was monitored with a Calipher.
The A375 cell line presenting BRAF V600E was used as melanoma model. The cell line was stably transduced with a luciferase expressing vector to facilitate tumor size monitoring. A375 luc were implanted subcutaneously to mimic peripheral disease and then randomized when tumors reached 100-300 mm^3. (10 mice/group). The mice were administered either Vehicle, Compound Ia 10 mg/kg (QD PO) or dabrafenib 100 mg/kg (QD PO). In a fourth treatment cohort, dabrafenib 100 mg/kg (QD PO) was administered until tumor relapse occurred, at which point dabrafenib treatment was discontinued and mice were instead treated with Compound Ia 10 mg/kg (QD PO).

[4] = relapse under dabrafenib 100 mg/kg QD PO, caliper

Structure (SMILES)	responses, brain metastatic lesions ([1]; brain compartment)	responses upon relapse to available BRAFi and BRAFi/MEKi co-treatment ([1]; switch to Compound Ia after relapse, brain lesions)	antitumor activity [2]	responses, peripheral lesions ([3]; peripheral compartment)	responses upon relapse to available BRAFi ([3]; switch to Compound Ia after relapse, peripheral lesions)	Tumour size in relapse (mean value) [3, 4] [mm^3]	Tumour size in relapse (range) [3, 4]
Cn1cnc2ccc(Oc3c(F)ccc(NS(=O)(=O)N4CC[C@@H](F)C4)c3C#N)cc2c1=O [Compound Ia, (3R)—N-[2-cyano-4-fluoro-3-(3-methyl-4-oxo-quinazolin-6-yl)oxy-phenyl]-3-fluoro-pyrrolidine-1-sulfonamide]	long lasting responses	dramatic responses	potent antitumor activity	long lasting responses	dramatic responses		
CC(C)(C)c1nc(-c2cccc(NS(=O)(=O)c3c(F)cccc3F)c2F)c(-c2ccnc(N)n2)s1 [dabrafenib, reference compound]						558	300-700 mm3

Reference: patent publication US20240366605A1, “USE OF QUINAZOLINONE COMPOUND FOR THE TREATMENT OF CANCER” (Hoffmann-La Roche Inc., priority 2021, published 2024)
